From paper PMC6332076, “Plasma Pharmacokinetics of Polyphenols in a Traditional Japanese Medicine, Jumihaidokuto, Which Suppresses Propionibacterium acnes-Induced Dermatitis in Rats” (Molecules, 2015)
Each block holds one molecule with its values, some of them ahead of it.

Key:
[1] = Antioxidant assay, hydrogen peroxide-dependent oxidation (OxiSelect In vitro ROS/RNS Assay, DCFH-DiOxyQ); type: biochemical; details: for activity against ROS (in words): hydrogen peroxide-dependent oxidation
Procedure: Figure 4 Concentration dependency of flavonoid glucuronides and comparison with aglycones. Glucuronides and aglycones of flavonoid were assayed at serially-diluted concentrations to assess on hydrogen peroxide-dependent oxidation. Test samples were incubated with hydrogen peroxide for 5 min, followed by mixing with a probe of oxidant activity. After 15 min incubation, the hydrogen peroxide-dependent fluorescent intensity was measured. Data are shown as mean ± S.E. of triplicates. To assess ROS, OxiSelect In vitro ROS/RNS Assay kits ([…], Minneapolis, MN, USA) were used according to manufacturer’s instructions. Briefly, a test sample was incubated with 2.5 μmol/L of hydrogen peroxide for 5 min, and dichlorodihydrofluorescin DiOxyQ (DCFH-DiOxyQ) was added as a probe of oxidant activity. After 15 min incubation, the hydrogen peroxide-dependent fluorescent intensity was measured using a fluorescent plate reader (Infinite M200; Tecan, Wako Pure Chemical Industries). Percentage of inhibition of ROS was calculated using the following equation: [1 − (sample RFU^a − base RFU^b)/(control RFU^c − base RFU^b)] × 100 (1) where RFU is a relative fluorescent unit of reaction solution, a is RFU of DCFH-DiOxyQ with hydrogen peroxide and sample, b is RFU of DCFH-DiOxyQ alone, and c is RFU of DCFH-DiOxyQ with hydrogen peroxide.

[2] = Antioxidant assay, nitric oxide generated from NOR3 (Griess reagent); type: biochemical; details: for activity against nitric oxide (in words): nitric oxide reaction
Procedure: To quantify nitric oxide, a test sample was incubated at 37 °C for 150 min in PBS supplemented with 30 μmol/L of (±)-(E)-4-ethyl-2-[(E)-hydroxyimino]-5-nitro-3-hexenamide (NOR3). Nitric oxide generated naturally from NOR3, was measured using the Griess reagent (1% sulfanilamide, 0.1% N-(1-naphthyl) ethylenediamine dihydrochlride in 5% H3PO4). Briefly, 100 μL of the reacted solution was incubated for 5 min with 100 μL Griess reagent. Optical densities at 540 nm were then measured.

in vivo = assay: in vivo; set-up: species or system rat; details: for appearance / detection in plasma: rat plasma after oral JHT 2 g/kg
Procedure: The higher dose than that in the pharmacological test was used to detect more constituents. […] In some experiments to deconjugate glucuronidated polyphenols, the samples were incubated with 75 mmol/L phosphate buffer containing 200 units/mL β-glucuronidase from Escherichia coli (Sigma-Aldrich) for 2 h at 37 °C.
For quantification of liquiritin, liquiritigenin, isoliquiritin, isoliquiritigeniin, hesperidin, hesperetin, castalagin, and all flavonoid glucuronides, 25–60 µL of standard solution and 25 µL of internal standard solution were added to 200–300 µL of plasma samples, followed by mixing well. Methanol (750–800 µL) was added to the solutions, followed by mixing and centrifugation (7000 g, 5 min). The supernatants were collected and dried at 40 °C under a stream of nitrogen gas. Then, the dried residue was dissolved in 50–100 μL of the HPLC mobile phase of each analytical method, and a 1–20 μL portion was injected into the LC-MS/MS systems. For quantification of genistein, luteolin, quercetin, (+)-catechin, (−)-epicatechin gallate, (±)-gallocatechin, Gallic acid, 4-O-methylgallic acid, hamamelitannin, 1,2,3,6-tetra-O-galloyl glucose, 1,2,3,4,6-penta-O-galloyl glucose, eugeniin, and 1-desgalloyl eugeniin, 200 μL of plasma samples were used. The amounts were measured using the same procedure, as described previously, except ethyl acetate (500 μL) and 2% acetic acid (100 μL), instead of methanol, were used concurrently as an extraction solution.
Plasma pharmacokinetic data were analyzed by non-compartmental modeling using Phoenix WinNonlin (version 6.3, Certara L.P., St. Louis, MO, USA) to determine various pharmacokinetic constants including the maximum concentration (Cmax), time to maximum concentration (tmax), apparent elimination half-life (t1/2), and area under the plasma concentration-time curve from time zero to the last observation (AUC0–last). The t1/2 was […] loge2/ke, where ke is the terminal elimination (at least three data points on the descending linear limb) rate constant.

[3] = system: Propionibacterium acnes (P. acnes)-induced dermatitis; assay: P. acnes-induced acute dermatitis, ear thickness; type: in vivo, rat; details: rats, intradermal P. acnes 0.14 mg/ear; JHT 0.5 g/kg p.o. 1 h before and 6 h after injection; PDN 10 mg/kg p.o.; P. acnes + DW group 181%; N = 5
Procedure: Figure 1 Suppression of Propionibacterium acnes (P. acnes)-induced dermatitis in rats by jumihaidokuto (JHT) administration. Dermatitis was induced in rats by injection of P. acnes (0.14 mg/50 μL/ear) into the pinna. The ear thickness was measured at 0 and 24 h after the injection. JHT suspended in distilled water (DW) was administered orally at a dose of 0.5 g/10 mL/kg at 1 h before and 6 h after the injection. Prednisolone (PDN, 10 mg/10 mL/kg) was used as a reference drug. Data represent the relative ear thickness, which was standardized against the previous values before the injection. N = 5. ^## p < 0.01 vs. saline + DW group (Student’s t-test), ** p < 0.01 significant vs. P. acnes + DW group (Dunnett’s test). […]
P. acnes-induced dermatitis was induced using the procedure described previously with a minor modification. […] The ear thickness was measured using a dial thickness gauge micrometer (Ozaki MFG Co., Tokyo, Japan) at 0 and 24 h after the injection. All data on the increase in ear thickness were expressed as a percentage of the previous value in each individual rat, and as the mean ± S.E. Statistical significance was evaluated by one-way analysis of variance, followed by the Dunnett’s multiple comparisons or unpaired Student’s t-test. […]

[4] = tested at 0.1-30 μmol/L, N = 3, n.d. = not detectable at the maximal concentration (30 μmol/L)
[5] = rat plasma, oral JHT 2 g/kg, non-compartmental

Antioxidant activity, IC50, Nitric Oxide [2, 4]: 3.59 µg/mL
plasma concentration after β-glucuronidase treatment (in vivo; rat plasma, 1 h after oral JHT 2 g/kg): unchanged
AUC(0-t) (in vivo; [5]): 32.7 ng·h/mL
Cmax (in vivo; [5]): 6.65 ng/mL
half-life (in vivo; [5]): 1.62 h
tmax (in vivo; [5]): 2.00 H
concentration at 1 h (in vivo; rat, plasma, po, 2 g/kg, rat plasma, 1 h after oral JHT 2 g/kg, read-out: plasma concentration before β-glucuronidase treatment): 5.57 ng/mL
SMILES: COc1c(O)cc(C(=O)O)cc1O [4-O-Methylgallic acid, 4-O-methylgallic acid]
Antioxidant activity, IC50, Hydrogen Peroxide [1, 4]: not detectable even at the highest concentration

appearance / detection in plasma (in vivo): identified by major peaks
SMILES: CC1(C)[C@@H](O)CC[C@]2(C)[C@H]3C(=O)C=C4[C@@H]5C[C@@](C)(C(=O)O)CC[C@]5(C)CC[C@@]4(C)[C@]3(C)CC[C@@H]12 [Glycyrrhetic acid, glycyrrhetic acid, reference compound]
activity against ROS (in words) [1]: no activity
activity against nitric oxide (in words) [2]: no activity

Further lines, the molecule ahead of its results:

SMILES: COc1cc(C(=O)O)cc(O)c1O [3-O-methylgallic acid]
activity against ROS (in words) [1]: strong activity
activity against nitric oxide (in words) [2]: not nitric oxide

SMILES: COc1c2c(cc3oc(CO)cc(=O)c13)O[C@H](C(C)(C)O)C2 [Cimifugin, cimifugin, reference compound]
activity against ROS (in words) [1]: no activity
activity against nitric oxide (in words) [2]: no activity
appearance / detection in plasma (in vivo): identified by major peaks

SMILES: C[C@]12C=CC(=O)C=C1CC[C@@H]1[C@@H]2[C@@H](O)C[C@@]2(C)[C@H]1CC[C@]2(O)C(=O)CO [PDN, Prednisolone]
increase in ear thickness in a 24 h period compared with that prior to injection [3]: 123%
